Source: publication PMC11444863 (Bioscience of Microbiota, Food and Health, 2024)

Biological target: T1, Hyaluronidase from bovine testes (Bos taurus, UniProt Q2YDK3)
T1 sequence (Q2YDK3 36-553): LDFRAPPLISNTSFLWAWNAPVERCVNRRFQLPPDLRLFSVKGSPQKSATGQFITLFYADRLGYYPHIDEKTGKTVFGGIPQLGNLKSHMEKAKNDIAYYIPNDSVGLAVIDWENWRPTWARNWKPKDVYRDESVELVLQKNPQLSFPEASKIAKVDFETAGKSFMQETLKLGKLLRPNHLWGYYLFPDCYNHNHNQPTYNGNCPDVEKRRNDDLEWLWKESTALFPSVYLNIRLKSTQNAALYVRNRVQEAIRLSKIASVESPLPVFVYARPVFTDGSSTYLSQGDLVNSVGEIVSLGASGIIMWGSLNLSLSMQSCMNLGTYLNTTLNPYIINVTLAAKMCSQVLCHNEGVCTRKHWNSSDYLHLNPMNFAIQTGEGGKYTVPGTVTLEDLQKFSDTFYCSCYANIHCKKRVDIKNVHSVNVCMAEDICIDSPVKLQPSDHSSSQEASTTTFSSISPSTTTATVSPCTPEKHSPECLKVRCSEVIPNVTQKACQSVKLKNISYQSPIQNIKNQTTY
Experiment: colorimetric hyaluronidase inhibition assay
Format: biochemical

O=C(O)CCC(=O)C(=O)O [AKG, α-ketoglutarate]
IC50: 2820 ± 38 µM

O=C(O)c1cc(=O)c2c(OCC(O)COc3cccc4oc(C(=O)O)cc(=O)c34)cccc2o1 [DSCG, disodium cromoglycate]
IC50: 360 ± 41 µM
